Patent US20250032524A1, “BROAD SPECTRUM AMINOGLYCOSIDES AND USES THEREOF” (REVAGENIX, INC., priority 2022, published 2025)

Key:
Assay type in all cases: cell-based
Enterobacterales = assay: Antibacterial surveillance of clinical isolates (MIC50/90)
Procedure, shortened: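 Each compound is tested against randomly selected SENTRY MSSA, MRSA and P. aeruginosa panels and against aminoglycoside-resistant Enterobacterales with defined mechanisms. Growth inhibition is scored in cation-adjusted Mueller-Hinton broth after 18-24 hours at 35° C, and the set-wide MIC50/MIC90 are reported.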

[1] = tested on: AG-resistant P. aeruginosa; assay: as above; conditions: Pseudomonas aeruginosa, 50 isolates with defined aminoglycoside resistance; for MIC50: read-out: MIC50; for MIC90: read-out: MIC90
Procedure, shortened: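 CLSI broth microdilution MIC in cation-adjusted Mueller-Hinton broth, final inoculum 5×10^5 CFU/mL, 35° C ambient air, 18-24 h; MIC = lowest concentration preventing visible growth (OD600 <0.05). SENTRY US/European clinical isolates, including genetically defined aminoglycoside-resistant sets; MIC50/MIC90 inhibit ≥50%/≥90% of isolates.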

[2] = tested on: clinical isolates of multi-drug resistant bacterial pathogens including A. baumannii, MRSA, P. aeruginosa, and CRE; assay: MIC secondary panel, overall statement; conditions: read-out: minimum inhibitory concentration (MIC) values
Protocol: Minimum inhibitory concentrations for representative example compounds herein were determined by a broth microdilution method in accordance with the Clinical and Laboratory Standards Institute (CLSI) guidelines. In brief, organism suspensions were adjusted to a 0.5 McFarland standard to yield a final inoculum between 3×10^5 and 7×10^5 colony-forming units (CFU)/mL. The inoculum was prepared by suspension of a colony from an agar plate that was prepared the previous day. Compound dilutions and inoculum were prepared in sterile, cation adjusted Mueller-Hinton Broth (Beckton Dickinson).
Bacteria were suspended in sterile saline and added to each assay plate to obtain a final concentration of 5×10^5 CFU/mL. An inoculum volume of 100 μL was added to wells containing 100 μL of broth with 2-fold serial dilutions of the test compound. All inoculated microdilution trays were incubated in ambient air at 35° C. for 18-24 hours. Following incubation, the lowest concentration of the compound that prevented visible growth (OD 600 nm<0.05) is recorded was the MIC. […] Performance of the assay was monitored by the use of laboratory quality-control strains and a standard compound with a defined MIC spectrum (neomycin), in accordance with CLSI guidelines.
Several compounds of the disclosure (Compounds 1, 2, 3, and 6) were further evaluated against a secondary panel of clinical isolates of multi-drug resistant bacterial pathogens including A. baumannii, methicillin-resistant Staphylococcus aureus (MRSA), P. aeruginosa, and carbapenem-resistant Enterobacteriaceae (CRE).

Row | Structure (SMILES) | MIC50 (Enterobacterales) [µg/mL] | MIC90 (Enterobacterales) [µg/mL] | MIC50 [1] [µg/mL] | MIC90 [1] [µg/mL] | MIC [2] [µg/mL]
1 | NC[C@@H]1CC[C@@H](N)[C@@H](O[C@@H]2[C@@H](N)[C@H](O)[C@@H](NC(=O)[C@@H](O)[C@H](F)CN)[C@H](O)[C@H]2O[C@@H]2O[C@H](CO)[C@@H](O[C@H]3O[C@@H](CN)[C@@H](O)[C@H](O)[C@H]3N)[C@H]2O)O1 [Compound 1, (2R,3R)-4-amino-N-((1R,2S,3S,4R,5R,6S)-3-amino-5-(((2S,3R,4S,5R)-4-(((2R,3R,4R,5S,6S)-3-amino-6-(aminomethyl)-4,5-dihydroxytetrahydro-2H-pyran-2-yl)oxy)-3-hydroxy-5-(hydroxymethyl)tetrahydrofuran-2-yl)oxy)-4-(((2R,3R,6S)-3-amino-6-(aminomethyl)tetrahydro-2H-pyran-2-yl)oxy)-2,6-dihydroxycyclohexyl)-3-fluoro-2-hydroxybutanamide] | < 16 | < 16 | < 16 | < 16 | ≤ 16
2 | NCC[C@H](O)C(=O)N[C@@H]1[C@@H](O)[C@H](N)[C@@H](O[C@H]2O[C@H](CN)CC[C@H]2N)[C@H](O[C@@H]2O[C@H](CO)[C@@H](O[C@H]3O[C@@H](CN)[C@@H](O)[C@H](O)[C@H]3N)[C@H]2O)[C@H]1O [Compound 2, (S)-4-amino-N-((1R,2S,3S,4R,5R,6S)-3-amino-5-(((2S,3R,4S,5R)-4-(((2R,3R,4R,5S,6S)-3-amino-6-(aminomethyl)-4,5-dihydroxytetrahydro-2H-pyran-2-yl)oxy)-3-hydroxy-5-(hydroxymethyl)tetrahydrofuran-2-yl)oxy)-4-(((2R,3R,6S)-3-amino-6-(aminomethyl)tetrahydro-2H-pyran-2-yl)oxy)-2,6-dihydroxycyclohexyl)-2-hydroxybutanamide] | < 16 | < 16 | < 16 | < 16 | ≤ 16
3 | C[C@H](N)[C@@H]1CC[C@@H](N)[C@@H](O[C@@H]2[C@@H](N)[C@H](O)[C@@H](NC(=O)[C@@H](O)[C@H](F)CN)[C@H](O)[C@H]2O[C@@H]2O[C@H](CO)[C@@H](O[C@H]3O[C@@H](CN)[C@@H](O)[C@H](O)[C@H]3N)[C@H]2O)O1 [Compound 3, (2R,3R)-4-amino-N-((1R,2S,3S,4R,5R,6S)-3-amino-4-(((2R,3R,6S)-3-amino-6-((S)-1-aminoethyl)tetrahydro-2H-pyran-2-yl)oxy)-5-(((2S,3R,4S,5R)-4-(((2R,3R,4R,5S,6S)-3-amino-6-(aminomethyl)-4,5-dihydroxytetrahydro-2H-pyran-2-yl)oxy)-3-hydroxy-5-(hydroxymethyl)tetrahydrofuran-2-yl)oxy)-2,6-dihydroxycyclohexyl)-3-fluoro-2-hydroxybutanamide] | < 16 | < 16 | < 16 | < 16 | ≤ 16
4 | C[C@H](N)[C@@H]1CC[C@@H](N)[C@@H](O[C@@H]2[C@@H](N)[C@H](O)[C@@H](NC(=O)[C@@H](O)CCN)[C@H](O)[C@H]2O[C@@H]2O[C@H](CO)[C@@H](O[C@H]3O[C@@H](CN)[C@@H](O)[C@H](O)[C@H]3N)[C@H]2O)O1 [Compound 6, (S)-4-Amino-N-((1R,2S,3S,4R,5R,6S)-3-Amino-4-(((2R,3R,6S)-3-Amino-6-((S)-1-Aminoethyl)Tetrahydro-2H-Pyran-2-Yl)Oxy)-5-(((2S,3R,4S,5R)-4-(((2R,3R,4R,5S,6S)-3-Amino-6-(Aminomethyl)-4,5-Dihydroxytetrahydro-2H-Pyran-2-Yl)Oxy)-3-Hydroxy-5-(Hydroxymethyl)Tetrahydrofuran-2-Yl)Oxy)-2,6-Dihydroxycyclohexyl)-2-Hydroxybutanamide] | – | – | – | – | ≤ 16
